Assay results published in US9132188B2, “Chemically Programmed Vaccination” (The Scripps Research Institute, priority 2009, dated 2015).

Test system: CT26 tumors
Assay: Syngeneic colon cancer model, CT26 tumors in JW-KLH-immunized BALB/C mice
Format: in vivo
Settings: 200 μL i.p. days 2-17; compared with PBS
Method: FIG. 5 illustrates inhibition of tumor growth in syngenic mice mediated by adaptor-targeted antibodies. […] Mice (six per group) were treated between days 2 and 17 with 200 μL i.p. injections of PBS alone, 60 μg/mL SCS-873 in PBS, or 27.5 μg/mL SCS-397 in PBS. Mean tumor volumes±SD were determined at 3-day intervals from 12 to 30 days post-grafting. […] Mice (six per group) were treated between days 2 and 17 with 200 μL i.p. injections of PBS alone, 77 μg/mL cRGD-dk in PBS, or 42.5 μg/mL cRGD in PBS. Mean tumor volumes±SD were determined at 3-day intervals from 12 to 30 days post-grafting. […] Mean tumor volumes±SD were determined at 3-day intervals from 12 to 24 days post-grafting. […] Mean tumor volumes±SD were determined at 3-day intervals from 12 to 24 days post-grafting.
On day 65, JW-KLH-immunized BALB/C mice were sorted (6 groups with 6 animals each) to form matched anti-JW titer groups and were inoculated s.c. into right flanks with 0.1 mL (2×10^5 cells/mouse) of CT26 cell suspension in PBS (day 0 for tumor model). […] Tumor volumes of treated animals were measured over the skin in two dimensions using a slide caliper every third day starting on day 12, and the tumor volume was calculated according to the following formula, ½(width)^2×length. Toxicity was monitored by determining the body weight of mice once a week. […]

cyclo(Arg-Gly-Asp-D-Phe-Lys) [cRGD]
growth of CT26 tumors (in words): no more effective than treatment with PBS
